Active and inactive are the calls of the source. How the calls were made is not given here.
Test system: CCRIS mutagenicity, Ames/micronucleus/aberration tests
Test: CCRIS mutagenicity studies
[1] = Test System: AMES SALMONELLA TYPHIMURIUM, Strain/Indicator: TA98, Metabolic Activation: RAT, LIVER, S-9, AROCLOR 1254, Method: STANDARD PLATE
[2] = Test System: AMES SALMONELLA TYPHIMURIUM, Strain/Indicator: TA100, Metabolic Activation: NONE, Method: STANDARD PLATE
[3] = Test System: AMES SALMONELLA TYPHIMURIUM, Strain/Indicator: TA100, Metabolic Activation: RAT, LIVER, S-9, AROCLOR 1254, Method: STANDARD PLATE

[Cl][Cr]([Cl])[Cl]
mutagenic call (End Point: IN VITRO MICRONUCLEUS, Test System: CHL/IU CELLS, Metabolic Activation: NONE): active; positive
mutagenic call (Test System: AMES SALMONELLA TYPHIMURIUM, Strain/Indicator: TA94, Metabolic Activation: NONE, Method: STANDARD PLATE): active; positive
mutagenic call (Test System: AMES SALMONELLA TYPHIMURIUM, Strain/Indicator: TA98, Metabolic Activation: HAMSTER, LIVER, S-9, AROCLOR 1254, Method: STANDARD PLATE): inactive; negative
mutagenic call (Test System: AMES SALMONELLA TYPHIMURIUM, Strain/Indicator: TA98, Metabolic Activation: NONE, Method: PREINCUBATION): inactive; negative
mutagenic call [1]: inactive; negative
mutagenic call (Test System: AMES SALMONELLA TYPHIMURIUM, Strain/Indicator: TA98, Metabolic Activation: RAT, LIVER, S-9, PHENOBARBITAL AND BETA-NAPHTHOFLAVONE, Method: PREINCUBATION): inactive; negative
mutagenic call (Test System: AMES SALMONELLA TYPHIMURIUM, Strain/Indicator: TA100, Metabolic Activation: HAMSTER, LIVER, S-9, AROCLOR 1254, Method: STANDARD PLATE): inactive; negative
mutagenic call (Test System: AMES SALMONELLA TYPHIMURIUM, Strain/Indicator: TA100, Metabolic Activation: NONE, Method: PREINCUBATION): inactive; negative
mutagenic call [2]: inactive; negative
mutagenic call [3]: inactive; negative
mutagenic call (Test System: AMES SALMONELLA TYPHIMURIUM, Strain/Indicator: TA100, Metabolic Activation: RAT, LIVER, S-9, PHENOBARBITAL AND BETA-NAPHTHOFLAVONE, Method: PREINCUBATION): inactive; negative
mutagenic call (Test System: AMES SALMONELLA TYPHIMURIUM, Strain/Indicator: TA102, Metabolic Activation: HAMSTER, LIVER, S-9, AROCLOR 1254, Method: STANDARD PLATE): active; positive
mutagenic call (Test System: AMES SALMONELLA TYPHIMURIUM, Strain/Indicator: TA102, Metabolic Activation: RAT, LIVER, S-9, AROCLOR 1254, Method: STANDARD PLATE): active; positive
mutagenic call (Test System: AMES SALMONELLA TYPHIMURIUM, Strain/Indicator: TA1535, Metabolic Activation: HAMSTER, LIVER, S-9, AROCLOR 1254, Method: STANDARD PLATE): inactive; negative
mutagenic call (Test System: AMES SALMONELLA TYPHIMURIUM, Strain/Indicator: TA1535, Metabolic Activation: NONE, Method: PREINCUBATION): inactive; negative
mutagenic call (Test System: AMES SALMONELLA TYPHIMURIUM, Strain/Indicator: TA1535, Metabolic Activation: NONE, Method: STANDARD PLATE): inactive; negative
mutagenic call (Test System: AMES SALMONELLA TYPHIMURIUM, Strain/Indicator: TA1535, Metabolic Activation: RAT, LIVER, S-9, AROCLOR 1254, Method: STANDARD PLATE): inactive; negative
mutagenic call (Test System: AMES SALMONELLA TYPHIMURIUM, Strain/Indicator: TA1535, Metabolic Activation: RAT, LIVER, S-9, PHENOBARBITAL AND BETA-NAPHTHOFLAVONE, Method: PREINCUBATION): inactive; negative
mutagenic call (Test System: AMES SALMONELLA TYPHIMURIUM, Strain/Indicator: TA1537, Metabolic Activation: HAMSTER, LIVER, S-9, AROCLOR 1254, Method: STANDARD PLATE): inactive; negative
mutagenic call (Test System: AMES SALMONELLA TYPHIMURIUM, Strain/Indicator: TA1537, Metabolic Activation: NONE, Method: PREINCUBATION): inactive; negative
mutagenic call (Test System: AMES SALMONELLA TYPHIMURIUM, Strain/Indicator: TA1537, Metabolic Activation: NONE, Method: STANDARD PLATE): inactive; negative
mutagenic call (Test System: AMES SALMONELLA TYPHIMURIUM, Strain/Indicator: TA1537, Metabolic Activation: RAT, LIVER, S-9, AROCLOR 1254, Method: STANDARD PLATE): inactive; negative
mutagenic call (Test System: AMES SALMONELLA TYPHIMURIUM, Strain/Indicator: TA1537, Metabolic Activation: RAT, LIVER, S-9, PHENOBARBITAL AND BETA-NAPHTHOFLAVONE, Method: PREINCUBATION): inactive; negative
mutagenic call (Test System: AMES SALMONELLA TYPHIMURIUM, Strain/Indicator: TA1538, Metabolic Activation: NONE, Method: PREINCUBATION): inactive; negative
mutagenic call (Test System: AMES SALMONELLA TYPHIMURIUM, Strain/Indicator: TA1538, Metabolic Activation: RAT, LIVER, S-9, PHENOBARBITAL AND BETA-NAPHTHOFLAVONE, Method: PREINCUBATION): inactive; negative
mutagenic call (Test System: CHINESE HAMSTER OVARY CELLS, Strain/Indicator: CHO CELLS (HPRT)/6-THIOGUANINE, Metabolic Activation: NONE, Method: STANDARD PLATE): active; positive
mutagenic call (Test System: E. COLI, Strain/Indicator: WP2 UVRA, Metabolic Activation: NONE, Method: SPOT TEST): inactive; negative
mutagenic call (Test System: E. COLI, Strain/Indicator: WP2UVRA, Metabolic Activation: RAT LIVER S-9, PHENOBARBITAL AND BETA-NAPHTHOFLAVONE, Method: PREINCUBATION): inactive; negative
mutagenic call (Test System: E.COLI, Strain/Indicator: WP2UVRA, Metabolic Activation: NONE, Method: PREINCUBATION): inactive; negative
mutagenic call (Test System: Mouse lymphoma, Strain/Indicator: L5178Y (tk+/tk-), Metabolic Activation: None, Method: Suspension/plate): inactive; negative
mutagenic call (Test System: Mouse lymphoma, Strain/Indicator: L5178Y (tk+/tk-), Metabolic Activation: Rat, Liver, S-9, Aroclor 1254, Method: Suspension/plate): active; equivocal (previous evaluation positive)

O=C(c1ccccc1)C1OC1c1ccc(-c2ccccc2)cc1 (configuration not stated)
mutagenic call (Test System: AMES SALMONELLA TYPHIMURIUM, Strain/Indicator: TA98, Metabolic Activation: NONE, Method: STANDARD PLATE): inactive; negative
mutagenic call [1]: inactive; negative
mutagenic call [2]: inactive; negative
mutagenic call [3]: inactive; negative

CCOC(=O)[C@H](CCc1ccccc1)N[C@@H](C)C(=O)N(CC(=O)O)C1Cc2ccccc2C1
mutagenic call (Test System: AMES SALMONELLA TYPHIMURIUM, Strain/Indicator: TA98, Metabolic Activation: NONE): inactive; negative
mutagenic call (Test System: AMES SALMONELLA TYPHIMURIUM, Strain/Indicator: TA98, Metabolic Activation: S-9): inactive; negative
mutagenic call (Test System: AMES SALMONELLA TYPHIMURIUM, Strain/Indicator: TA100, Metabolic Activation: NONE): inactive; negative
mutagenic call (Test System: AMES SALMONELLA TYPHIMURIUM, Strain/Indicator: TA100, Metabolic Activation: S-9): inactive; negative
mutagenic call (Test System: AMES SALMONELLA TYPHIMURIUM, Strain/Indicator: TA1535, Metabolic Activation: NONE): inactive; negative
mutagenic call (Test System: AMES SALMONELLA TYPHIMURIUM, Strain/Indicator: TA1535, Metabolic Activation: S-9): inactive; negative
mutagenic call (Test System: AMES SALMONELLA TYPHIMURIUM, Strain/Indicator: TA1537, Metabolic Activation: NONE): inactive; negative
mutagenic call (Test System: AMES SALMONELLA TYPHIMURIUM, Strain/Indicator: TA1537, Metabolic Activation: S-9): inactive; negative
mutagenic call (Test System: E. COLI, Strain/Indicator: WP2 UVRA, Metabolic Activation: NONE): inactive; negative
mutagenic call (Test System: E. COLI, Strain/Indicator: WP2 UVRA, Metabolic Activation: S-9): inactive; negative

CC(C)[C@](O)(C(=O)O)[C@@H](C)O
mutagenic call (Test System: AMES SALMONELLA TYPHIMURIUM, Strain/Indicator: TA100, Metabolic Activation: HAMSTER, LIVER, S-9, PCB, Method: PREINCUBATION): inactive; negative
mutagenic call (Test System: AMES SALMONELLA TYPHIMURIUM, Strain/Indicator: TA100, Metabolic Activation: RAT, LIVER, S-9, PCB, Method: PREINCUBATION): inactive; negative

Source: PubChem BioAssay AID1259407 (Chemical Carcinogenesis Research Information System (CCRIS), 2018)
